Laboratory results published in PMC7269505, “An Engineered Double Lipid II Binding Motifs-Containing Lantibiotic Displays Potent and Selective Antimicrobial Activity against Enterococcus faecium” (Antimicrobial Agents and Chemotherapy, 2020).
Where “and” joins values, the source holds several entries; their conditions need not be identical. Equal entries are not always repeated. Where two headings read alike, the source gives them in different places. No end group written: not given here.

What was measured:
[1] = tested on: E. faecium ATCC HF50105 (ETVRE); format: cell-based, Enterococcus faecium
Description: (§1) MIC was evaluated by broth microdilution according to the standard guidelines ([45]). Briefly, the test medium was cation-adjusted Mueller-Hinton broth (MHB). Cell concentration was adjusted to approximately 5 × 10^5 cells per ml. After 20 h of incubation at 37°C, the MIC was defined as the lowest concentration of antibiotic with no visible growth. Each experiment was performed in triplicates.

[2] = tested on: E. faecium ATCC TX0082 (AEKVRE); format: cell-based, Enterococcus faecium
Description: as §1

E. faecium 6Tom18 = format: cell-based, Enterococcus faecium
Description: as §1

[3] = tested on: E. faecium ATCC E1162 (ARE); format: cell-based, Enterococcus faecium
Description: as §1

E. faecium 4Tom19 = format: cell-based, Enterococcus faecium
Description: as §1

[4] = tested on: E. faecium LMG16003 (VRE); format: cell-based, Enterococcus faecium
Description: as §1

[5] = tested on: E. faecium ATCC TX0133a04; format: cell-based, Enterococcus faecium
Description: as §1

[6] = tested on: E. faecium ATCC E1321 (AGRE); format: cell-based, Enterococcus faecium
Description: as §1

E. faecium LMG11423 = format: cell-based, Enterococcus faecium
Description: as §1

[7] = tested on: E. faecium (LMG16003; vancomycin-resistant strain); test: Time-kill assay; format: cell-based, Enterococcus faecium; settings: MHB, 37°C, CFU counts, triplicates
Description: This assay was performed according to a previously described procedure ([29]). An overnight culture of cells (Enterococcus faecium LMG 16003; vancomycin-resistant strain) was diluted 50-fold in MHB and incubated at 37°C with aeration at 220 rpm. Bacteria were grown to an OD of 0.5, and then the cell concentration was adjusted to ≈5 × 10^5 cells per ml. Bacteria were then challenged with nisin (20 μM), nisin(1-22) (600 μM), or TL19 (10 μM) in culture tubes at 37°C and 220 rpm. (peptides at 10× MIC, a desirable concentration at the site of infection). Bacteria not treated with peptides were used as a negative control. At desired time points, 100-μl aliquots were taken, centrifuged at 8,000 × g for 2 min, and resuspended in 100 μl of MHB. Ten-fold serially diluted samples were plated on Mueller-Hinton agar (MHA) plates. After incubating at 37°C overnight, colonies were counted and CFU per milliliter was calculated. Each experiment was performed in triplicates.

B. cereus ATCC 10987 = format: cell-based, Bacillus cereus
Description: as §1

B. cereus ATCC 14579 = format: cell-based, Bacillus cereus
Description: as §1

E. faecalis LMGV583 = format: cell-based, Enterococcus faecalis
Description: as §1

[8] = tested on: E. faecalis LMG16216 (VRE); format: cell-based, Enterococcus faecalis
Description: as §1

E. faecalis LMG8222 = format: cell-based, Enterococcus faecalis
Description: as §1

A. baumannii LMG01041 = format: cell-based, Acinetobacter baumannii
Description: as §1

S. aureus LMG10147 = format: cell-based, Staphylococcus aureus
Description: as §1

Escherichia coli GSK 12 = test: MIC by broth microdilution; format: cell-based; settings: cation-adjusted MHB, approx. 5 × 10^5 cells per ml, 20 h, 37°C, triplicates
Description: as §1

[9] = tested on: E. faecium LMG16003 cells; test: Propidium iodide assay for membrane pore formation; format: cell-based, Enterococcus faecium; settings: peptide 3 μM, propidium iodide 2.5 μg per ml, monitored for 3 h, excitation 533 nm, emission 617 nm
Description: The excitation and emission wavelengths on the fluorescence spectrometer were adjusted to 533 nm and 617 nm, respectively. E. faecium LMG16003 was grown to an OD600 of 0.6. To this cell suspension, propidium iodide (final concentration, 2.5 μg per ml) was added and incubated for 5 min. Peptides were added to a final concentration of 3 μM. Fluorescence was monitored for 3 h, with the peptide added after ∼60 s.

E. faecium LMG16003 [10] = test: Antimicrobial activity of TL19 mutants (agar spot assay, Fig. 5d); format: cell-based, Enterococcus faecium; settings: 1 nmol peptide, after removal of the leader peptide with NisP (Fig. 5d)
Text: A highly conserved glutamate in HalA1 (Glu22) is essential for binding to its target lipid II ([12], [15], [16]). Mutating the glutamate residue in the CTLTXEC motif to alanine or glutamine completely abolished antibacterial activity ([15]). […] Therefore, either Glu34 in TL19 was mutated to Ala, Thr2 in TL19 was mutated to Asp, or both mutations were installed together in the same TL19 variant. […] NisC-catalyzed cyclization of the mutated peptides was investigated using CDAP treatment under reducing conditions followed by MS analysis.
FIG 5 Importance of both lipid II binding motifs for antimicrobial activity against E. faecium LMG16003. MALDI-TOF MS data of TL19 or TL19 mutants before (blue) and after (red) treated with CDAP. (a) TL19 (2Asp); (b) TL19 (34Ala); (c) TL19 (2Asp, 34Ala). (d) Antimicrobial activity for TL19 mutants against E. faecium LMG16003: 1, TL19 (1 nmol); 2, TL19 (2Asp) (1 nmol); 3, TL19 (34Ala) (1 nmol); 4, TL19 (2Asp, 34Ala) (1 nmol); 5, TL19 (2Asp) (1 nmol) plus TL19 (34Ala) (1 nmol); 6, negative control (buffer).

[11] = tested on: E. faecium ATCC U0317 (ACRE); test: MIC by broth microdilution; format: cell-based, Enterococcus faecium; settings: cation-adjusted MHB, approx. 5 × 10^5 cells per ml, 20 h, 37°C, triplicates
Description: as §1

E. faecium = test: MIC comparison across E. faecium strains; format: cell-based, Enterococcus faecium; settings: from MIC values; for higher antibacterial activity than nisin(1-22): antibiotic-resistant E. faecium
Description: as §1

Micrococcus flavus = test: Screening of antibacterial activity by spot-on-lawn assay; format: cell-based; settings: TCA-precipitated peptide 5 μl plus 1 μl NisP, GM17 0.8% agar, 30°C overnight (Fig. S1)
Description: To assess the antibacterial activity of TCA-precipitated samples on a agar plate, an overnight culture of Micrococcus flavus was added to the GM17 containing 0.8% (wt/vol) agar (at 42°C), and then the mixture was poured onto the plates, 30 ml per plate. After that, 5 μl of the peptides together with 1 μl of NisP were added to the plates, and the plates were transferred to the 30°C incubator for incubation overnight.

E. faecium LMG16003 [12] = test: Spot-on-lawn assay to measure peptide-lipid II complex formation; format: cell-based, Enterococcus faecium; settings: peptide 1 nmol, either lipid II-lys or lipid II-dap
Description: An overnight cultured E. faecium LMG16003 was added to 0.8% MHA (wt/vol; temperature, 42°C) at a final concentration of 0.1% (vol/vol), and then the mixture was poured onto the plates (30 ml for each). Binding of peptide and lipid II was further evaluated by incubating purified lipid II with peptide in various molar ratios ranging from 0.5 to 2 with respect to the peptides (1 nmol). Subsequently, a spot-on-lawn assay was used to analyze the antimicrobial activity. After the lipid II solution drops with peptide had dried, the plates were transferred to the 37°C incubator for overnight incubation.

[13] = Complex formation with lipid II by thin-layer chromatography; format: binding; settings: TLC, lipid II-lys or lipid II-dap (Fig. 4b1 and b2), 4 nmol, 30 min at 25°C
Description: Purified lipid II-lys or lipid II-dap (4 nmol) was incubated in chloroform-methanol-water (2:3:1), in the presence of increasing TL19 concentrations (TL19/lipid II molar ratios ranging from 0.3 to 2:1) in a total volume of 30 μl. After incubating for 30 min at 25°C, the mixture was analyzed by thin-layer chromatography using chloroform-methanol-water-ammonia (88:48:10:1), and the spots were visualized by iodine vapor ([20], [26]).

[14] = broth microdilution, cation-adjusted MHB, approx. 5 × 10^5 cells per ml, 20 h, 37°C, triplicates

Compound: C=C1NC(=O)[C@H]([C@@H](C)CC)NC(=O)[C@H](NC(=O)/C(=C/C)NC(=O)[C@@H](N)[C@@H](C)CC)CSC[C@@H](C(=O)N[C@H]2C(=O)N3CCC[C@H]3C(=O)NCC(=O)N[C@H](C(=O)N[C@@H](CCCCN)C(=O)N[C@H]3C(=O)NCC(=O)N[C@@H](C)C(=O)N[C@@H](CC(C)C)C(=O)N[C@@H](CCSC)C(=O)NCC(=O)N[C@H](C(=O)N[C@@H](CC(N)=O)C(=O)N[C@@H](CCSC)C(=O)N[C@@H](CCCCN)C(=O)O)CS[C@H]3C)CS[C@H]2C)NC(=O)[C@H](CC(C)C)NC1=O [Nisin(1-22), reference compound]
- MIC ([1]; ATCC HF50105, 20 h): 30 µM
- MIC [1, 14]: 64 µg/mL
- MIC ([2]; ATCC TX0082, 20 h): 60 µM
- MIC [2, 14]: 128 µg/mL
- MIC (E. faecium 6Tom18; 6Tom18, 20 h): 30 µM
- MIC (E. faecium 6Tom18; [14]): 64 µg/mL
- MIC ([3]; ATCC E1162, 20 h): > 60 µM
- MIC [3, 14]: > 128 µg/mL
- MIC (E. faecium 4Tom19; 4Tom19, 20 h): 60 µM
- MIC (E. faecium 4Tom19; [14]): 128 µg/mL
- MIC ([4]; LMG16003, 20 h): 60 µM
- MIC [4, 14]: 128 µg/mL
- MIC ([5]; ATCC TX0133, 20 h): 60 µM
- MIC [5, 14]: 128 µg/mL
- MIC ([6]; ATCC E1321, 20 h): 60 µM
- MIC [6, 14]: 128 µg/mL
- MIC (E. faecium LMG11423; LMG11423, 20 h): 60 µM
- MIC (E. faecium LMG11423; [14]): 128 µg/mL
- effect on population of viable cells within 11 h postexposition ([7]; 10× MIC: nisin(1-22) 600 μM): did not reduce the population of viable cells
- killing in 48 h ([7]; 10× MIC: nisin(1-22) 600 μM): only slight killing was observed
- MIC (B. cereus ATCC 10987; ATCC 10987, 20 h): > 60 µM
- MIC (B. cereus ATCC 10987; [14]): > 128 µg/mL
- MIC (B. cereus ATCC 14579; ATCC 14579, 20 h): 30 µM
- MIC (B. cereus ATCC 14579; [14]): 64 µg/mL
- MIC (E. faecalis LMGV583; LMGV583, 20 h): > 60 µM
- MIC (E. faecalis LMGV583; [14]): > 128 µg/mL
- MIC ([8]; LMG16216, 20 h): > 60 µM
- MIC [8, 14]: > 128 µg/mL
- MIC (E. faecalis LMG8222; LMG8222, 20 h): > 60 µM
- MIC (E. faecalis LMG8222; [14]): > 128 µg/mL
- MIC (A. baumannii LMG01041; LMG01041, 20 h): > 60 µM
- MIC (A. baumannii LMG01041; [14]): > 128 µg/mL
- MIC (S. aureus LMG10147; LMG10147, 20 h): 15 µM
- MIC (S. aureus LMG10147; [14]): 32 µg/mL
- MIC (Escherichia coli GSK 12): > 128 µg/mL
- pore formation (propidium iodide fluorescence increase) [9]: neither TL19 nor nisin(1-22) caused any fluorescence increase

Compound: IDSISLCTPGCKTGALMGCNMKTATCHYCTLTVACMPSCN [TL19 (2Asp, 34Ala)]
- antimicrobial activity relative to TL19 (E. faecium LMG16003 [10]): decreased or completely abolished the antimicrobial activity

Compound: IDSISLCTPGCKTGALMGCNMKTATCHYCTLTVECMPSCN [TL19 (2Asp), TL19 variant in which Thr2 was mutated to Asp]
- antimicrobial activity relative to TL19 (E. faecium LMG16003 [10]): almost abolished the antimicrobial activity

Compound: ITSISLCTPGCKTGALMGCNMKTATCHCTLTVECMPSCN (also: bicyclic or more (positions not given here)) [TL17, incompletely modified, not all rings formed]
- MIC [11]: 7.5 μM and 29 μg/ml
- higher antibacterial activity than nisin(1-22) (E. faecium): 16 fold
- antimicrobial activity against Micrococcus flavus (Micrococcus flavus): potent antimicrobial activity
- MIC (Escherichia coli GSK 12): > 15 μM and > 58 μg/ml

Compound: ITSISLCTPGCKTGALMGCNMKTATCHYCTLTVACMPSCN [TL19 (34Ala)]
- antimicrobial activity relative to TL19 (E. faecium LMG16003 [10]): severely reduced the antimicrobial activity

Compound: ITSISLCTPGCKTGALMGCNMKTATCHYCTLTVECMPSCN (also: bicyclic or more (positions not given here)) [TL19, lantibiotic with seven thioether rings]
- MIC [11]: 1.9 μM and 7.6 μg/ml
- antibacterial activity upon addition of lipid II at a 1:1 (peptide/lipid II) ratio (E. faecium LMG16003 [12]): still showed potent antibacterial activity
- higher antibacterial activity than TL17 (E. faecium; E. faecium): 4 fold
- higher antibacterial activity than nisin(1-22) (E. faecium): 64 fold
- time to complete killing ([7]; 10× MIC: nisin 20 μM, TL19 10 μM, ≈5 × 10^5 cells per ml): 24 h
- antimicrobial activity against Micrococcus flavus (Micrococcus flavus): potent antimicrobial activity
- lipid II migration at a low ratio (0.3:1) of TL19 to lipid II [13]: lipid II migration was significantly inhibited
- MIC (Escherichia coli GSK 12): > 15 μM and > 60 μg/ml
- pore formation (propidium iodide fluorescence increase) [9]: neither TL19 nor nisin(1-22) caused any fluorescence increase
